This is an account of results in patent US12679824B2 (Hoffmann-La Roche Inc., priority 2020, dated 2026).

The structures appear in SMILES notation.

In general, IC90 refers to the concentration needed for an effect of 90%.

The test system of one experiment is Acinetobacter baumannii ATCC17961. In words: 90% Growth Inhibitory Concentration (IC90) determination, antimicrobial susceptibility testing. The format is cell-based. Particulars: Acinetobacter baumannii ATCC17961; Iso-Sensitest broth; growth by optical density at 600 nm over 16h; concentration inhibiting 90% of the growth; read-out: ATCC 17961 IC90. The procedure: Antimicrobial Susceptibility Testing:
90% Growth Inhibitory Concentration (IC90) Determination
The in vitro antimicrobial activity of the compounds was determined according to the following procedure:
The assay used a 10-points Iso-Sensitest broth medium to measure quantitatively the in vitro activity of the compounds against Acinetobacter baumannii ATCC17961.
Stock compounds in DMSO were serially twofold diluted (e.g. range from 50 to 0.097 μM final concentration) in 384 wells microtiter plates and inoculated with 49 μl the bacterial suspension in Iso-Sensitest medium to have a final cell concentration of ~5×10^(5) CFU/ml in a final volume/well of 50 ul/well. Microtiter plates were incubated at 35±2° C.
Bacterial cell growth was determined with the measurement of optical density at λ=600 nm each 20 minutes over a time course of 16h. Growth inhibition was calculated during the logarithmic growth of the bacterial cells with determination of the concentration inhibiting 50% (IC50) and 90% (IC90) of the growth.
Table 1 provides the 90% growth inhibitory concentrations (IC90) in micromoles per liter of the compounds of present invention obtained against the strain Acinetobacter baumannii ATCC17961.
On to `Cn1c(-c2cn(-c3ccc(N)cn3)nc2C(F)(F)F)cnc1C(=O)Nc1ccc(C(=O)N[C@H]2C[C@@H](NC(=O)[C@@H]3C[C@@H](O)CN3)C2)c(Cl)c1` (stereo in doubt) [Example Z42, 5-[1-(5-amino-2-pyridyl)-3-(trifluoromethyl)pyrazol-4-yl]-N-[3-chloro-4-[cis-[3-[[(2S,4R)-4-hydroxyprolyl]amino]cyclobutyl]carbamoyl]phenyl]-1-methyl-imidazole-2-carboxamide], for which the IC90 stood at 630 nM.

Still in this experiment, the particulars now being: Acinetobacter baumannii, ATCC17961, 16 h, Acinetobacter baumannii ATCC17961; Iso-Sensitest broth; growth by optical density at 600 nm over 16h; concentration inhibiting 90% of the growth; read-out: ATCC 17961 IC90.
As for `Cn1c(-c2cn(-c3ccc(N)cn3)nc2C(F)(F)F)cnc1C(=O)Nc1ccc(C(=O)NCC2(NC(=O)[C@@H]3CC(O)CN3)CC2)c(Cl)c1` (stereo in doubt) [Example Z43, 5-[1-(5-amino-2-pyridyl)-3-(trifluoromethyl)pyrazol-4-yl]-N-[3-chloro-4-[[1-[[(2S,4R)-4-hydroxyprolyl]amino]cyclopropyl]methylcarbamoyl]phenyl]-1-methyl-imidazole-2-carboxamide], the IC90 worked out at 1220 nM.
Same read-out and setting: the result for `Cn1c(-c2cn(-c3ccncc3)nc2C(F)(F)F)cnc1C(=O)Nc1ccc(C(=O)N2CCN(C(=O)C3CCNCC3)CC2)c(Cl)c1` [Example A2, N-[3-chloro-4-[4-(piperidine-4-carbonyl)piperazine-1-carbonyl]phenyl]-1-methyl-5-[1-(4-pyridyl)-3-(trifluoromethyl)pyrazol-4-yl]imidazole-2-carboxamide] reads 710 nM.
Turning to `Cn1c(-c2cn(-c3ccc(Cl)cn3)nc2C(F)(F)F)cnc1C(=O)Nc1ccc(C(=O)N2CCN(C(=O)C3CCNCC3)CC2)c(Cl)c1` [Example A3, N-[3-chloro-4-[4-(piperidine-4-carbonyl)piperazine-1-carbonyl]phenyl]-5-[1-(5-chloro-2-pyridyl)-3-(trifluoromethyl)pyrazol-4-yl]-1-methyl-imidazole-2-carboxamide], the concentration for an effect of 90% (IC90) was 370 nM.
For `Cn1c(-c2cn(-c3ncc(N)cn3)nc2C(F)(F)F)cnc1C(=O)Nc1ccc(C(=O)N2CCN(C(=O)C3CCNCC3)CC2)c(Cl)c1` [Example A5, 5-[1-(5-aminopyrimidin-2-yl)-3-(trifluoromethyl)pyrazol-4-yl]-N-[3-chloro-4-[4-(piperidine-4-carbonyl)piperazine-1-carbonyl]phenyl]-1-methyl-imidazole-2-carboxamide], the concentration for an effect of 90% (IC90) was found to be 1000 nM.
Same read-out and setting: the result for `COCCOc1cnc(-n2cc(-c3cnc(C(=O)Nc4ccc(C(=O)N5CCN(C(=O)C6CCNCC6)CC5)c(Cl)c4)n3C)c(C(F)(F)F)n2)nc1` [Example A6, N-[3-chloro-4-[4-(piperidine-4-carbonyl)piperazine-1-carbonyl]phenyl]-5-[1-[5-(2-methoxyethoxy)pyrimidin-2-yl]-3-(trifluoromethyl)pyrazol-4-yl]-1-methyl-imidazole-2-carboxamide] reads 540 nM; that for `Cn1c(-c2cn(-c3ncc(F)cn3)nc2C(F)(F)F)cnc1C(=O)Nc1ccc(C(=O)N2CCN(C(=O)C3CCNCC3)CC2)c(Cl)c1` [Example A8, N-[3-chloro-4-[4-(piperidine-4-carbonyl)piperazine-1-carbonyl]phenyl]-5-[1-(5-fluoropyrimidin-2-yl)-3-(trifluoromethyl)pyrazol-4-yl]-1-methyl-imidazole-2-carboxamide], 910 nM.
As to `Cn1c(-c2cn(-c3ncc4cn[nH]c4n3)nc2C(F)(F)F)cnc1C(=O)Nc1ccc(C(=O)N2CCN(C(=O)C3CCNCC3)CC2)c(Cl)c1` [Example A9, N-[3-chloro-4-[4-(piperidine-4-carbonyl)piperazine-1-carbonyl]phenyl]-1-methyl-5-[1-(1h-pyrazolo[3,4-d]pyrimidin-6-yl)-3-(trifluoromethyl)pyrazol-4-yl]imidazole-2-carboxamide], the 90% effect concentration (IC90) came to 510 nM.
With `Cn1c(-c2cn(-c3ncccc3C(F)(F)F)nc2C(F)(F)F)cnc1C(=O)Nc1ccc(C(=O)N2CCN(C(=O)C3CCNCC3)CC2)c(Cl)c1` [Example A10, N-[3-chloro-4-[4-(piperidine-4-carbonyl)piperazine-1-carbonyl]phenyl]-1-methyl-5-[3-(trifluoromethyl)-1-[3-(trifluoromethyl)-2-pyridyl]pyrazol-4-yl]imidazole-2-carboxamide], the 90% effect concentration (IC90) was determined as 830 nM.
The same measure, in the same setting: the result for `Cn1c(-c2cn(-c3ccccn3)nc2C(F)(F)F)cnc1C(=O)Nc1ccc(C(=O)N2CCN(C(=O)C3CCNCC3)CC2)c(Cl)c1` [Example A11, N-[3-chloro-4-[4-(piperidine-4-carbonyl)piperazine-1-carbonyl]phenyl]-1-methyl-5-[1-(2-pyridyl)-3-(trifluoromethyl)pyrazol-4-yl]imidazole-2-carboxamide] reads 240 nM.
`COc1ccnc(-n2cc(-c3cnc(C(=O)Nc4ccc(C(=O)N5CCN(C(=O)C6CCNCC6)CC5)c(Cl)c4)n3C)c(C(F)(F)F)n2)c1` [Example A12, N-[3-chloro-4-[4-(piperidine-4-carbonyl)piperazine-1-carbonyl]phenyl]-5-[1-(4-methoxy-2-pyridyl)-3-(trifluoromethyl)pyrazol-4-yl]-1-methyl-imidazole-2-carboxamide]: the IC90 is 250 nM.
Same read-out and setting: the result for `COc1ccc(-n2cc(-c3cnc(C(=O)Nc4ccc(C(=O)N5CCN(C(=O)C6CCNCC6)CC5)c(Cl)c4)n3C)c(C(F)(F)F)n2)nc1` [Example A13, N-[3-chloro-4-[4-(piperidine-4-carbonyl)piperazine-1-carbonyl]phenyl]-5-[1-(5-methoxy-2-pyridyl)-3-(trifluoromethyl)pyrazol-4-yl]-1-methyl-imidazole-2-carboxamide] reads 210 nM; that for `Cn1c(-c2cn(-c3nccc(OCCN)n3)nc2C(F)(F)F)cnc1C(=O)Nc1ccc(C(=O)N2CCN(C(=O)C3CCNCC3)CC2)c(Cl)c1` [Example A14, 5-[1-[4-(2-aminoethoxy)pyrimidin-2-yl]-3-(trifluoromethyl)pyrazol-4-yl]-N-[3-chloro-4-[4-(piperidine-4-carbonyl)piperazine-1-carbonyl]phenyl]-1-methyl-imidazole-2-carboxamide], 2200 nM; that for `Cn1c(-c2cn(-c3nccc(N)n3)nc2C(F)(F)F)cnc1C(=O)Nc1ccc(C(=O)N2CCN(C(=O)C3CCNCC3)CC2)c(Cl)c1` [Example A15, 5-[1-(4-aminopyrimidin-2-yl)-3-(trifluoromethyl)pyrazol-4-yl]-N-[3-chloro-4-[4-(piperidine-4-carbonyl)piperazine-1-carbonyl]phenyl]-1-methyl-imidazole-2-carboxamide], 590 nM.
Still for that read-out and setting: with `CNc1ccnc(-n2cc(-c3cnc(C(=O)Nc4ccc(C(=O)N5CCN(C(=O)C6CCNCC6)CC5)c(Cl)c4)n3C)c(C(F)(F)F)n2)n1` [Example A16, N-[3-chloro-4-[4-(piperidine-4-carbonyl)piperazine-1-carbonyl]phenyl]-1-methyl-5-[1-[4-(methylamino)pyrimidin-2-yl]-3-(trifluoromethyl)pyrazol-4-yl]imidazole-2-carboxamide] the figure was 680 nM.
On the same count and under the same terms, with `CN(C)c1ccnc(-n2cc(-c3cnc(C(=O)Nc4ccc(C(=O)N5CCN(C(=O)C6CCNCC6)CC5)c(Cl)c4)n3C)c(C(F)(F)F)n2)n1` [Example A17, N-[3-chloro-4-[4-(piperidine-4-carbonyl)piperazine-1-carbonyl]phenyl]-5-[1-[4-(dimethylamino)pyrimidin-2-yl]-3-(trifluoromethyl)pyrazol-4-yl]-1-methyl-imidazole-2-carboxamide] the figure was 500 nM; with `COCCNc1ccnc(-n2cc(-c3cnc(C(=O)Nc4ccc(C(=O)N5CCN(C(=O)C6CCNCC6)CC5)c(Cl)c4)n3C)c(C(F)(F)F)n2)n1` [Example A19, N-[3-chloro-4-[4-(piperidine-4-carbonyl)piperazine-1-carbonyl]phenyl]-5-[1-[4-(2-methoxyethylamino)pyrimidin-2-yl]-3-(trifluoromethyl)pyrazol-4-yl]-1-methyl-imidazole-2-carboxamide], 1200 nM.
`Cn1c(-c2cn(-c3cnccn3)nc2C(F)(F)F)cnc1C(=O)Nc1ccc(C(=O)N2CCN(C(=O)C3CCNCC3)CC2)c(Cl)c1` [Example A20, N-[3-chloro-4-[4-(piperidine-4-carbonyl)piperazine-1-carbonyl]phenyl]-1-methyl-5-[1-pyrazin-2-yl-3-(trifluoromethyl)pyrazol-4-yl]imidazole-2-carboxamide]: the IC90 was 480 nM.

The experiment is the same for the next values; noted with them: Acinetobacter baumannii, ATCC17961, 16 h, read-out: ATCC 17961 IC90.
With `Cn1c(-c2cn(-c3ncccn3)nc2C(F)(F)F)cnc1C(=O)Nc1ccc(C(=O)N2CCN(C(=O)C3CCNCC3)CC2)c(Cl)c1` [Example A1, N-[3-Chloro-4-[4-(piperidine-4-carbonyl)piperazine-1-carbonyl]phenyl]-1-methyl-5-[1-pyrimidin-2-yl-3-(trifluoromethyl)pyrazol-4-yl]imidazole-2-carboxamide], the concentration for an effect of 90% (IC90) turned out to be 690 nM.
Same read-out and setting: the result for `CN(C)c1cnc(-n2cc(-c3cnc(C(=O)Nc4ccc(C(=O)N5CCN(C(=O)C6CCNCC6)CC5)c(Cl)c4)n3C)c(C(F)(F)F)n2)nc1` [Example B1, N-[3-Chloro-4-[4-(piperidine-4-carbonyl)piperazine-1-carbonyl]phenyl]-5-[1-[5-(dimethylamino)pyrimidin-2-yl]-3-(trifluoromethyl)pyrazol-4-yl]-1-methyl-imidazole-2-carboxamide] reads 230 nM.
